Data: US20240408112A1, “METHOD FOR PREVENTING OR TREATING PULMONARY ARTERIAL HYPERTENSION BY USING 7-DEHYDROCHOLESTEROLS OR SALTS, OXIDES, METABOLITES, OR DERIVATIVES THEREOF” (EXCELSIOR PHARMATECH LABS., priority 2023, published 2024)

Columns and labels:
[1] = tested on: monocrotaline induced pulmonary arterial hypertension rat; test: Monocrotaline-induced pulmonary arterial hypertension rat model, Example 3 (7-DHC vs macitentan); assay type: in vivo; details: for Right ventricle pressure (RVP): 25th day after monocrotaline induction, MCT rats 28.97 mmHg; for Arterial gas analysis PaO2 and PaCO2, in words: between groups CON, MCT and treated; for Thickening of pulmonary arteries, in words: p<0.001, vs MCT rats (exceeded 65%); for Base excess (BE) value: MCT group −6, normal −2 to +2; for Average right ventricle hypertrophy ratio (RV/S+LV): MCT rats 71.64%, normal rats 26.7%
Description: Pulmonary arterial hypertension animal experimental model
The present disclosure utilizes injection of monocrotaline to induce symptoms of pulmonary arterial hypertension in rats to establish a pulmonary arterial hypertension animal experimental model suitable for screening test drugs.
The diagnostic method of clinical pulmonary arterial hypertension standards is right heart catheterization, which is defined as mean pulmonary arterial pressure (mPAP) greater than or equal to 20 mmHg. The diagnostic criteria for pulmonary arterial hypertension, in addition to an increase in mean pulmonary arterial pressure, need to be combined with pulmonary vascular resistance (PVR) greater than 3 Wood unit. The right ventricle pressure (RVP) and systemic mean blood pressure (mbp) in rats with pulmonary arterial hypertension were measured by Millar Model PCU200 pressure system, and the heart rate (HR) was also monitored at the same time. After measuring the hemodynamic data, the arterial blood was extracted from the carotid artery of the pulmonary arterial hypertension rat, and the Abbott blood oximeter (i-STAT) combined with Abbott's special chip cartridge (i-STAT Cartridge G3+) was used to measure arterial gas analysis data such as pH, PaO2, PaCO2, HCO3 and base excess (BE) value in quantitative whole blood samples. The normal pH value is between 7.35 and 7.45, and the pH value indicates whether the experimental animal has the condition of acidemia, alkalemia, acidosis or alkalosis. The normal value of PaO2 is between 80 and 100 mmHg, which reflects the effectiveness of gas exchange (ventilation/perfusion). The normal value of PaCO2 is between 35 and 45 (such as 38 and 42) mmHg, which can evaluate the effectiveness of alveolar ventilation. The acid produced by food, tissue decomposition, inflammation and hypoxia rely on the lungs to excrete volatile acid CO2 (short-term) and the bicarbonate (HCO3^−) produced by the kidneys (long-term) to neutralize non-volatile acids, while the normal value of bicarbonate hydrogen radical (HCO3^−) is between 22 and 26 meq/L. BE is the base excess value, its normal value ranges from −2 to +2, the negative value represents the degree of alkali ion deficiency in the blood, a negative BE value (−) that is too high indicates metabolic acidosis, and a positive value (+) that is too high is metabolic alkalosis. At the end of the experiment, the rats were sacrificed and their hearts were removed and the left and right ventricles were separated and weighed (RV)/(S)+(LV).
Monocrotaline was utilized to induce pulmonary arterial hypertension rat animal model, intraperitoneal injection (IP) TGF-β receptor inhibitor 7-DHC (039) and oral administration of macitentan (soluble in methylcellulose), 7-DHC (039) was divided into two groups according to the dosage: 10 mg/kg or 20 mg/kg, and the dosage of macitentan group was 30 mg/kg.

[2] = tested on: human pulmonary artery smooth muscle cells (hPASMC); test: BrdU cell proliferation assay, 10% FBS, hPASMC; assay type: cell-based
Description: (§1) BrdU (5-bromo-2-deoxyuridine) cell proliferation assay (BrdU assay)
(§2) A 48-well plate was used, and 1.5×10^4 cells were implanted in each well. After 24 hours, the medium was changed to serum-free culture medium and synchronized for 24 hours. A 2-fold concentration of the compound in serum-free culture medium is prepared and the cells were pretreated for 1 hour. Then, the same volume of culture medium containing 20% fetal bovine serum (FBS) was added to dilute the compound. The final concentration was 10% FBS culture medium and 1 times the concentration of the compound. In the experimental group that added TGF-β, the same volume of TGF-β culture medium containing 10 ng/mL was added, with a final concentration of 5 ng/mL TGF-β and 1 times the concentration of the compound, and in the experimental group added with TGF-β, the entire process was conducted in culture medium containing 0.1% serum. Then, BrdU reagent was added about 6 hours later, and the cells were collected the next day for enzyme-linked immunosorbent assay (ELISA) analysis, the compound treatment time was about 24 hours, and the BrdU treatment time was about 18 hours.
(§3) Five compounds to be tested were screened by cell survival assay (MTT assay) and BrdU (5-bromo-2-deoxyuridine) cell proliferation assay, and the information of these compounds was listed in Table 1 below. Tables 2 and 3 respectively listed the growth inhibitions of on human pulmonary artery endothelial cells (hPAEC), human pulmonary artery smooth muscle cells (hPASMC), normal rat pulmonary artery smooth muscle cells (rPASMC, as the control group, represented by “CON”), and rat pulmonary artery smooth muscle cells (represented by “MCT”), by the five compounds to be tested under the conditions of 10% FBS, 0.1% FBS and 100 pM TGF-β.

[3] = tested on: TGF-β-stimulated PAI-1 promoter activity; test: TGF-β stimulated Pai-1 luciferase assay in MLECs-clone32 cells; assay type: cell-based; details: TGF-β 50 pM, 4 hours, read-out: IC50 value of compound inhibiting TGF-β-stimulated Pai-1 luciferase activity (%)
Description: TGF-β Stimulated Pai-1 Luciferase Assay
MLECs-clone32 cell line was used to measure the impact of different compounds on the downstream gene, plasminogenactivator inhibitor 1 (PAI-1) performance stimulated by TGF-β. MLECs-clone32 is an expression construct that is stably transfected for the Mv1Lu cell line, and the expression construct PAI-1 Luciferase contains a truncated (PAI-1) promoter fused to the firefly luciferase reporter gene^11,12. The activity stimulated by the truncated PAI-I promoter was quantified by using a luciferase assay. The luciferase activity stimulated by TGF-β in cells without compound treatment was set as 100%, and the effects of each compound on TGF-β-stimulated PAI-I promoter activity were compared. The steps for measuring Pai-1 luciferase activity include using a 96-well plate (DMEM medium containing 10% FBS), seeding each well with 1.5×10^5 cells, and culturing in an incubator overnight. After discarding the medium the next day, cells in DMEM medium with or without the addition of test compounds were treated with recombinant TGF-β (50 pM) and allowed to react in a 37° C. incubator for 4 hours. The cell culture medium was aspirated, washed with PBS, and the activity of Pai-1 luciferase was evaluated by luciferase assay.

[4] = tested on: PAH rat pulmonary artery smooth muscle cells (rPASMC MCT); test: BrdU cell proliferation assay, 10% FBS, rPASMC MCT; assay type: cell-based
Description: as §1, §2, §3

[5] = tested on: human pulmonary artery endothelial cells (hPAEC); test: BrdU cell proliferation assay, 0.1% FBS, 100 pM TGF-β, hPAEC; assay type: cell-based; details: hPAEC, 100 pM TGF-β, 0.1% FBS
Description: as §1, §2, §3

[6] = tested on: human pulmonary artery smooth muscle cells (hPASMC); test: BrdU cell proliferation assay, 0.1% FBS, 100 pM TGF-β, hPASMC; assay type: cell-based; details: hPASMC, 100 pM TGF-β, 0.1% FBS
Description: as §1, §2, §3

SMILES: CC(C)CCCC(C)C1CCC2C3=CC=C4CC(O)CCC4(C)C3CCC21C (centres unmarked) [Code 039, 7-DHC]
- Right ventricle pressure (RVP) ([1]; 10 mg/kg IP): 17.61 mmHg
- Arterial gas analysis PaO2 and PaCO2, in words ([1]; 10 mg/kg IP): no significant difference
- Thickening of pulmonary arteries, in words ([1]; 10 mg/kg IP): significantly reduced
- Base excess (BE) value ([1]; 10 mg/kg IP): −3
- Average right ventricle hypertrophy ratio (RV/S+LV) ([1]; 10 mg/kg IP): 53.96%
- Activity of the rats ([1]; 20 mg/kg IP): did not affect
- Survival rate ([1]; 20 mg/kg IP): 100%
- Weight of rats ([1]; 20 mg/kg IP): decreased significantly
- Right ventricle pressure (RVP) ([1]; 20 mg/kg IP): 19.96 mmHg
- Arterial gas analysis PaO2 and PaCO2, in words ([1]; 20 mg/kg IP): no significant difference
- Thickening of pulmonary arteries, in words ([1]; 20 mg/kg IP): significantly reduced
- Base excess (BE) value ([1]; 20 mg/kg IP): −1.4
- Average right ventricle hypertrophy ratio (RV/S+LV) ([1]; 20 mg/kg IP): 62.97%
- Systemic average blood pressure and heartbeat, in words ([1]; 10 or 20 mg/kg IP): did not significantly reduce
- EC50 ([2]; Homo sapiens, read-out: EC50 (concentration for 50% of maximal effect)): 53 µM
- Inhibition of cell growth (in words) ([2]; hPASMC, 10% FBS, FIG. 2): inhibition of cell growth can also be observed
- IC50 [3]: 15.5 µM
- EC50 ([4]; Rattus norvegicus, read-out: EC50 (concentration for 50% of maximal effect)): 37 µM
- Inhibition of cell growth (in words) ([4]; rPASMC MCT4, 10% FBS, FIG. 2): significant inhibitory effects
- EC50 ([5]; Homo sapiens, Endothelial cell, read-out: EC50): 23 µM
- Inhibition of cell growth (in words) ([5]; 25 μM, FIG. 3): inhibition of cell growth
- EC50 ([6]; Homo sapiens, read-out: EC50): 24 µM
- Inhibition of cell growth (in words) ([6]; 25 μM, FIG. 3): inhibition of cell growth
